Test results from article PMC9428149, “Tackling recalcitrant Pseudomonas aeruginosa infections in critical illness via anti-virulence monotherapy” (Nature Communications, 2022).
In brackets after ≈: the same amount, converted by molar mass. Several values for one entry are separate records, joined by “and”; a condition that tells them apart may be missing. Equal values may be shown once. Read-outs that look alike come from different tables or passages of the source.

Legend:
[1] = tested on: pqsA promoter (PA14 PpqsA-GFPASV); assay: pqsA-GFP reporter expression; assay type: cell-based, Pseudomonas aeruginosa; settings: Pseudomonas aeruginosa; for activity at 50 µM: PA14, read-out: % Production pqsA-GFP; for IC50: PA14, read-out: IC50 pqsA-GFP expression, PA14, 13 concentrations
PA14 AT/P cells = assay: AT/P cells formation assay in PA14; assay type: cell-based, Pseudomonas aeruginosa; settings: for inhibition at 10 µM: Pseudomonas aeruginosa, PA14, 24 h, read-out: inhibition of AT/P cells formation
[2] = tested on: mvfR mutant constitutively expressing the pqsABCDE operon; assay type: cell-based; settings: Pseudomonas aeruginosa, control about 100, single replicates (Figure 4a)
MvfR protein (MvfRC87) = molecular target: T1, MvfR protein (MvfRC87) (Pseudomonas aeruginosa, UniProt Q9I4X0); assay type: binding; settings: SPR
T1 construct: The MvfRC87 protein purified as in Xiao et. al., 2006; made in house
T1 sequence (Q9I4X0 87-332): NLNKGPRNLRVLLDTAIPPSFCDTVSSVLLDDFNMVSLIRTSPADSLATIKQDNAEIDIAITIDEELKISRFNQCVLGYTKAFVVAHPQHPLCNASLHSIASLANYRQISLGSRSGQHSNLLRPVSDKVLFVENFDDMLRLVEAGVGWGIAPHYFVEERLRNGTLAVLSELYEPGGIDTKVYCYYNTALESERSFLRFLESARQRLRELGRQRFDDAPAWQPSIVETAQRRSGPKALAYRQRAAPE
How it was run: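 MvfRC87 amine-coupled to a CM7 chip (3000–5000 RU) and binding measured by SPR. Double-reference-corrected responses 5 s before end of association plotted against concentration, for inhibitor alone and with native ligand PQS, compared with responses calculated for different binding sites.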

[3] = Solubility in iPBS pH 7.4 by HPLC; assay type: physicochemical; settings: isotonic phosphate buffer (iPBS), aqueous with cosolvent or surfactant or cyclodextrin, kinetic from dmso stock; iPBS pH 7.4, HPLC; read-out: Solubility (M) in PBS
How it was run: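 Compounds from 10 mM DMSO stock shaken 4 h at room temperature in iPBS pH 7.4 (10 mM PBS, 2.7 mM KCl, 140 mM NaCl, 0.05% Tween), then filtered. Concentration measured by HPLC-UV against a known standard solution; solubility given as ratio of compound in test solution to standard.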

[4] = tested on: pyocyanin production in PA14; assay: Pyocyanin production assay; settings: Pseudomonas aeruginosa; for activity at 50 µM: PA14, 18 h, read-out: % Production Pyocyanin; for IC50: PA14, read-out: IC50 pyocyanin production
Description: The over-day culture was grown to OD600nm 1.5., diluted again at 1:10,000 in 5 mL LB and incubated with 10 μM of the test compound or the vehicle control for 18 hours at 37 °C and 200 rpm in an incubator shaker. After 18 h, 1 mL of culture was centrifuged for 2 min at 20.000 x g. The supernatant was transferred to a new tube, 200 μL of this were loaded in a flat-bottom 96-well plate, and the pyocyanin levels were quantified by measuring at OD690nm in the infinite F200 plate reader using the Magellan software (Tecan, Switzerland). […] The percent of pyocyanin was calculated compared to the PA14 culture grown in the absence of compounds.
To determine the IC50 of pyocyanin production, we followed the same process as above. […] Using GraphPad Prism Software, the IC50 curve was plotted against percent inhibition of pyocyanin production at each concentration using PA14 in the absence of compounds as a control.

[5] = tested on: 16 MDR P. aeruginosa clinical isolates; assay: Pyocyanin production in MDR clinical isolates; settings: Pseudomonas aeruginosa, 18 h, Control about 100, replicates
ΔmvfR biofilm = assay: Biofilm formation of ΔmvfR mutant (off-target); settings: Pseudomonas aeruginosa, PA14, 24 h, read-out: Biofilm formation, ΔmvfR + compound; PA14 about 100; single replicates (Figure 4c)
Description: Biofilm was grown in the 96-well microtiter plate at 37 °C for 24 h containing M63 minimal media in the presence of 10 µM of the compounds or vehicle. The biofilm grown with the vehicle was considered as a control. The percentage value was calculated in comparison to the PA14 control. a–c Data represent at least n = 3, each dot on the graph represents one biological replicate. The number of biological replicates for each compound and strain is depicted in the graph. The error bars denote ±SEM.
The overnight grown starter culture was diluted 1:1000 in 5 mL LB media in a glass tube and was incubated at 37 °C and 200 rpm in an incubator shaker until the culture reached an OD600nm 3.0. The culture was then diluted at 1:100 in M63 minimal media supplemented with 0.2% glucose, 0.5% Casamino Acids, and 1 mM MgSO4. Initiation of the Biofilm formation was performed in the 96 well plates; 200 µL of diluted culture was added in the wells with (10 µM) or without compounds. The cultures were allowed to grow at 37 °C in static conditions for 24 hours. Thereafter, planktonic culture was removed from the wells, and wells were washed three times with distilled water (DW). Biofilm was stained with 0.1% crystal violet and incubated for 15 min at room temperature (RT). Access dye was removed from the wells and washed off three times with DW, and 200 µL ethanol: acetone (80:20) was added to the wells. The plate was incubated for 30 min at RT, and the OD was measured by spectrophotometry at 570 nm in the infinite F200 plate reader using the Magellan software (Tecan, Switzerland). Percent biofilm formation was calculated in comparison to PA14 culture that was grown in the absence of compounds.

[6] = tested on: PA14 isogenic mutant ΔmvfR AT/P cells; assay: AT/P cell formation in ΔmvfR mutant (off-target); settings: Pseudomonas aeruginosa, PA14, 24 h, read-out: AT/P cell formation, ΔmvfR + compound; PA14 about 100; single replicates (Figure 4b)
Description: Cells were grown in the presence of 10 μg mL^−1 meropenem, with or without 10 µM of the compounds for 24 h. Values were normalized to cells grown for 4 h in the absence of antibiotics and compounds. The ∆mvfR cells grown with antibiotics and vehicles were considered control, and the percentage values were calculated compared to control. c Biofilm formation of mutant ∆mvfR cells with or without compound. […] The number of biological replicates for each compound and strain is depicted in the graph. The error bars denote ±SEM.
The AT/P cell formation assay was performed according to the method previously described in Starkey et al., 2014 (persister cell assay). The over-day culture was incubated at 37 °C with shaking at 200 rpm until the culture OD600nm was 3.0. The culture was then diluted at 1:100 and grown in the same conditions for 4 h. After 4 h, 200 µL were collected, and serial dilutions were plated on LB agar plates for CFU quantification (as normalizers). The remainder of the culture was treated with meropenem to a final concentration of 100 × MIC (Minimum Inhibitory Concentration; 10 mg L^−1) and compounds at a final concentration of 10 µM. After 24 h, culture aliquots were 10-fold serially diluted in LB broth and plated on LB agar for CFU quantification. The AT/P fraction was determined as the normalizers (pre-antibiotic) ratio divided by the AT/P fraction (24 h post-antibiotic)[22].

[7] = tested on: MvfR-regulated small molecules in PA14; assay: Production of HAQs, 2-AA, DHQ and AA in PA14 cultures (LC-MS); settings: Pseudomonas aeruginosa
Description: The HAQs HHQ, PQS, HQNO, and non-HAQs: 2-AA and DHQ produced by PA14 cells were quantified in the presence of NAMs. The overnight grown starter culture was diluted 1:100 in 5 mL LB media in a glass tube and was allowed to grow in the presence (50 µM) or absence of compound at 37 °C and 200 rpm in an incubator shaker until OD600 was 3. Bacterial cultures were subsequently mixed 1:1 (400 μL: 400 μL) with 100% methanol containing 20 ppm (20 μg mL^−1) of tetradeutero-PQS (PQS-D4) and 10 ppm of tetradeutero-HHQ (HHQ-D4) in a 1.5 mL Eppendorf tube. The mixture was vortexed for 5 seconds and spun down for 5 minutes at 12,000 x g. A 700 μL aliquot of the supernatant was removed and stored in glass vials at −20 °C until further liquid chromatography-mass spectrophotometry (LC/MS) analysis as previously described in Lepine et al., 2003[66]. LC/MC analysis was performed using a Micromass Quattro II triple quadrupole mass spectrometer (Micromass Canada, Pointe-Claire, Canada) in positive electrospray ionization mode, interfaced to an HP1100 HPLC equipped with a 4.5 × 150 mm reverse-phase C8 column.
GraphPad Prism 9.2.0 software was used to plot the IC50 curve against the percent inhibition of these small molecules’ production at each concentration.

[8] = read-out: DHQ, ΔmvfR-pqsABCD strain
[9] = read-out: PQS, ΔmvfR-pqsABCD strain
[10] = read-out: Pyocyanin production relative to Control, clinical isolate LGR-4325
[11] = read-out: Pyocyanin production relative to Control, clinical isolate LGR-4326
[12] = read-out: Pyocyanin production relative to Control, clinical isolate LGR-4327
[13] = read-out: Pyocyanin production relative to Control, clinical isolate LGR-4328
[14] = read-out: Pyocyanin production relative to Control, clinical isolate LGR-4330
[15] = read-out: Pyocyanin production relative to Control, clinical isolate LGR-4331 (first section, r117)
[16] = read-out: Pyocyanin production relative to Control, clinical isolate LGR-4331 (second section, r140)
[17] = read-out: Pyocyanin production relative to Control, clinical isolate LGR-4333
[18] = read-out: Pyocyanin production relative to Control, clinical isolate LGR-4343
[19] = read-out: Pyocyanin production relative to Control, clinical isolate LGR-4344
[20] = read-out: Pyocyanin production relative to Control, clinical isolate LGR-4348
[21] = read-out: Pyocyanin production relative to Control, clinical isolate LGR-4356
[22] = read-out: Pyocyanin production relative to Control, clinical isolate LGR-4362
[23] = read-out: Pyocyanin production relative to Control, clinical isolate LGR-4363
[24] = read-out: Pyocyanin production relative to Control, clinical isolate LGR-4364 (first section, r326)
[25] = read-out: Pyocyanin production relative to Control, clinical isolate LGR-4364 (second section, r349)
[26] = PA14, read-out: % Production 2-AA
[27] = PA14, read-out: % Production AA
[28] = PA14, read-out: % Production DHQ
[29] = PA14, read-out: % Production HHQ
[30] = PA14, read-out: % Production HQNO
[31] = PA14, read-out: % Production PQS
[32] = PA14, read-out: HHQ production inhibition
[33] = PA14, read-out: HQNO production inhibition
[34] = PA14, read-out: PQS production inhibition
[35] = PA14, read-out: inhibition of 2-AA production
[36] = PA14, read-out: inhibition of DHQ production
[37] = read-out: HHQ, ΔmvfR-pqsABCD strain
[38] = read-out: HQNO, ΔmvfR-pqsABCD strain

## N#Cc1ccc(NC(=O)CC(=O)Nc2ccc(C(F)(F)F)cc2)cc1 [D69]
[1]
  activity at 50 µM: 2%
  IC50: 1700 nM
PA14 AT/P cells; PA14, 10 μg mL^−1 meropenem, 10 µM compound, 24 h, control PA14 + vehicle
  AT/P cells formation, percentage of control (single replicates): 16.39% and 11.56%
PA14 AT/P cells
  inhibition at 10 µM: ≥ 76%
[2]; [8]
  activity at 50 µM: 112%
[2]; [9]
  activity at 50 µM: 90.7%
MvfR protein (MvfRC87); Concentration 1.00E-05 M
  Response Unit (RU): 30 RU
MvfR protein (MvfRC87); Concentration 1.00E-06 M
  Response Unit (RU): 22.4 RU
MvfR protein (MvfRC87); Concentration 1.00E-07 M
  Response Unit (RU): 8.9 RU
MvfR protein (MvfRC87); Concentration 1.00E-08 M
  Response Unit (RU): 1.7 RU
MvfR protein (MvfRC87); Concentration 3.16E-06 M
  Response Unit (RU): 27.3 RU
MvfR protein (MvfRC87); Concentration 3.16E-07 M
  Response Unit (RU): 15.6 RU
MvfR protein (MvfRC87); Concentration 3.16E-08 M
  Response Unit (RU): 4.1 RU
[3]
  solubility at 4 h: 2.1e-05 M (≈ 7.29 µg/mL)
[4]
  activity at 50 µM: 4%
  IC50: 960 nM
[5]; [10]
  activity at 10 µM: 6.19%
[5]; [11]
  activity at 10 µM: 4.51%
[5]; [12]
  activity at 10 µM: 7.7%
[5]; [13]
  activity at 10 µM: 29.6%
[5]; [14]
  activity at 10 µM: 12.9%
[5]; [15]
  activity at 10 µM: 9.26%
[5]; [16]
  activity at 10 µM: 4.8%
[5]; [17]
  activity at 10 µM: 6.7%
[5]; [18]
  activity at 10 µM: 10.8%
[5]; [19]
  activity at 10 µM: 11.6%
[5]; [20]
  activity at 10 µM: 7.58%
[5]; [21]
  activity at 10 µM: 6.29%
[5]; [22]
  activity at 10 µM: 12.3%
[5]; [23]
  activity at 10 µM: 9.09%
[5]; [24]
  activity at 10 µM: 10.1%
[5]; [25]
  activity at 10 µM: 11.1%
ΔmvfR biofilm
  activity at 10 µM: 24.2%
[6]
  activity at 10 µM: 30.1%
[7]; [26]
  activity at 50 µM: 15%
[7]; [27]
  activity at 50 µM: 920%
[7]; [28]
  activity at 50 µM: 13%
[7]; [29]
  activity at 50 µM: 6%
[7]; [30]
  activity at 50 µM: 40%
[7]; [31]
  activity at 50 µM: 16%
[7]; [32]
  inhibition at 50 µM: 89 to 99%
[7]; [33]
  inhibition at 50 µM: 40 to 92%
[7]; [34]
  inhibition at 50 µM: 76 to 97%
[7]; [35]
  inhibition at 50 µM: 82 to 95%
[7]; [36]
  inhibition at 50 µM: 82 to 96%

## N#Cc1ccc(NC(=O)CC(=O)Nc2ccc(Oc3ccccc3)cc2)cc1 [D57]
[1]
  activity at 50 µM: 4%
  IC50: 430 nM
PA14 AT/P cells
  inhibition at 10 µM: ≥ 76%
[2]; [8]
  activity at 50 µM: 98.7%
[2]; [37]
  activity at 50 µM: 92.2%
[2]; [38]
  activity at 50 µM: 96.6%
[2]; [9]
  activity at 50 µM: 82.3%
MvfR protein (MvfRC87); Concentration 1.00E-05 M
  Response Unit (RU): 33.5 RU
MvfR protein (MvfRC87); Concentration 1.00E-06 M
  Response Unit (RU): 18 RU
MvfR protein (MvfRC87); Concentration 1.00E-07 M
  Response Unit (RU): 5.7 RU
MvfR protein (MvfRC87); Concentration 1.00E-08 M
  Response Unit (RU): 1 RU
MvfR protein (MvfRC87); Concentration 3.16E-06 M
  Response Unit (RU): 26.4 RU
MvfR protein (MvfRC87); Concentration 3.16E-07 M
  Response Unit (RU): 10.4 RU
MvfR protein (MvfRC87); Concentration 3.16E-08 M
  Response Unit (RU): 2.9 RU
[3]
  solubility at 4 h: 7e-06 M (≈ 2.6 µg/mL)
[4]
  activity at 50 µM: 6%
  IC50: 240 nM
[5]; [10]
  activity at 10 µM: 11%
[5]; [11]
  activity at 10 µM: 17.7%
[5]; [12]
  activity at 10 µM: 18.2%
[5]; [13]
  activity at 10 µM: 23.1%
[5]; [14]
  activity at 10 µM: 41.2%
[5]; [15]
  activity at 10 µM: 24.2%
[5]; [16]
  activity at 10 µM: 11.3%
[5]; [17]
  activity at 10 µM: 13.5%
[5]; [18]
  activity at 10 µM: 20.7%
[5]; [19]
  activity at 10 µM: 23.5%
[5]; [20]
  activity at 10 µM: 17.8%
[5]; [21]
  activity at 10 µM: 11%
[5]; [22]
  activity at 10 µM: 33.9%
[5]; [23]
  activity at 10 µM: 20.9%
[5]; [24]
  activity at 10 µM: 21.8%
[5]; [25]
  activity at 10 µM: 27.4%
ΔmvfR biofilm
  activity at 10 µM: 23.6%
[6]
  activity at 10 µM: 32%
[7]; [26]
  activity at 50 µM: 38%
[7]; [27]
  activity at 50 µM: 298%
[7]; [28]
  activity at 50 µM: 65%
[7]; [29]
  activity at 50 µM: 58%
[7]; [30]
  activity at 50 µM: 54%
[7]; [31]
  activity at 50 µM: 36%

## N#Cc1ccc(NC(=O)CC(=O)Nc2ccc(C#N)nc2)cc1 [D77]
[1]
  activity at 50 µM: 1%
  IC50: 6400 nM
PA14 AT/P cells
  inhibition at 10 µM: ≥ 51%
[2]; read-out: 2-AA, ΔmvfR-pqsABCD strain
  activity at 50 µM: 104%
[2]; [8]
  activity at 50 µM: 94.5%
[2]; [37]
  activity at 50 µM: 98%
[2]; [38]
  activity at 50 µM: 102%
[2]; [9]
  activity at 50 µM: 90.2%
MvfR protein (MvfRC87); Concentration 1.00E-05 M
  Response Unit (RU): 30.9 RU
MvfR protein (MvfRC87); Concentration 1.00E-06 M
  Response Unit (RU): 19.8 RU
MvfR protein (MvfRC87); Concentration 1.00E-07 M
  Response Unit (RU): 5.9 RU
MvfR protein (MvfRC87); Concentration 1.00E-08 M
  Response Unit (RU): 0.7 RU
MvfR protein (MvfRC87); Concentration 3.16E-06 M
  Response Unit (RU): 26.6 RU
MvfR protein (MvfRC87); Concentration 3.16E-07 M
  Response Unit (RU): 11.8 RU
MvfR protein (MvfRC87); Concentration 3.16E-08 M
  Response Unit (RU): 2.2 RU
[3]
  solubility at 4 h: 3.9e-05 M (≈ 11.9 µg/mL)
[4]
  activity at 50 µM: 7%
  IC50: 4070 nM
[5]; [10]
  activity at 10 µM: 15%
[5]; [11]
  activity at 10 µM: 12.1%
[5]; [12]
  activity at 10 µM: 20.6%
[5]; [13]
  activity at 10 µM: 25.6%
[5]; [14]
  activity at 10 µM: 35.1%
[5]; [15]
  activity at 10 µM: 18.8%
[5]; [16]
  activity at 10 µM: 8.31%
[5]; [17]
  activity at 10 µM: 11.8%
[5]; [18]
  activity at 10 µM: 22.6%
[5]; [19]
  activity at 10 µM: 26.1%
[5]; [20]
  activity at 10 µM: 19%
[5]; [21]
  activity at 10 µM: 14.3%
[5]; [22]
  activity at 10 µM: 39.2%
[5]; [23]
  activity at 10 µM: 18.5%
[5]; [24]
  activity at 10 µM: 18.9%
[5]; [25]
  activity at 10 µM: 16.9%
ΔmvfR biofilm
  activity at 10 µM: 23.6%
[6]
  activity at 10 µM: 29.3%
[7]; [26]
  activity at 50 µM: 19%
[7]; [27]
  activity at 50 µM: 777%
[7]; [28]
  activity at 50 µM: 20%
[7]; [29]
  activity at 50 µM: 10%
[7]; [30]
  activity at 50 µM: 64%
[7]; [31]
  activity at 50 µM: 24%
[7]; [32]
  inhibition at 50 µM: 89 to 99%
[7]; [33]
  inhibition at 50 µM: 40 to 92%
[7]; [34]
  inhibition at 50 µM: 76 to 97%
[7]; [35]
  inhibition at 50 µM: 82 to 95%
[7]; [36]
  inhibition at 50 µM: 82 to 96%
